Values quoted from earlier work as cited in patent US7550593B2, “Process for the preparation of finasteride Form I” (Cipla Limited, priority 2003, dated 2009).

Tested on: serum DHT concentration
Conditions: within 24 hours of oral dosing with a 1 mg tablet

CC(C)(C)NC(=O)[C@H]1CC[C@H]2[C@@H]3CC[C@H]4NC(=O)C=C[C@]4(C)[C@H]3CC[C@]12C [Finasteride, 17β-(N-t-butylcarbamoyl)-4-aza-5-alpha-androst-1-ene-3-one]
suppression of serum DHT concentration: 65%
